{"source": "patent US8168596B2", "about": "“Use of cycloartane compounds for treating arthritis” (NuLiv Holding Inc., priority 2008, dated 2012)", "key": {"[1]": {"test_system": "Type II Collagen", "assay": "Western blot of Type II Collagen in pre-treated human chondrocytes (HCHs)", "type": "cell-based", "details": "IL-1β-pre-treated HCH culture medium; compounds 0.1 μM, 48 h"}, "[2]": {"test_system": "SW1353 cells", "assay": "Cell viability assay (Cell Counting Kit 8)", "type": "cell-based, human", "details": "AS4 0.01-20 μM", "method": "The culture medium was replaced every other day. After confluence, the cells were subcultured following trypsinization. For subcultures, cells were harvested after brief treatment with 0.1% trypsin/ethylenediaminetetraacetic acid (EDTA) solution and seeded at a dilution of 1:10. Cells between passages 12 and 45 were used for studies.\nThen SW1353 cells were treated with astragaloside IV (AS4) at a concentration of 0.01 μM, 0.1 μM, 1 μM, 2 μM, 5 μM, 10 μM or 20 μM, followed by incubating for 24 hours or 48 hours. Later, the SW1353 cell culture in each well was treated with 10 μl Cell Counting Kit 8 solution (Dojindo molecular technologies, Gaithersburg, Md., USA), followed by incubation at 37° C. in a humidified incubator with 5% CO2 for 1-4 hours. Then, the absorbance of the SW1353 cell cultures was detected by an EIA reader at 450 nm. Compared with that of the control group, the viability of the experimental groups was analyzed."}, "[3]": {"test_system": "MMP-1", "assay": "Zymography of MMP-1 from pre-treated SW1353 cells", "type": "cell-based, human", "details": "PMA-pre-treated SW1353; 0.1 μM, 24 h", "method": "At the beginning of the experiment, the cells were pre-treated with 100 ng/mL PMA or 10 ng/mL IL-1β for 24 hours. The cells were then treated with 0.1 μM Dexamethasone, various astragaloside compounds (0.1 μM) or extracts of Astragalus membranaceous (1 μg/mL) at indicated dosages for another 24 hours. For control sample, 0.1% DMSO was used as a negative control for these experiments. The conditioned culture mediums were then centrifuged, 2-fold concentrated and collected for assay of collagens or MMPs secreted into the culture medium.\nThe proteolytic activities of MMPs from SW1353 cells were measured essentially as described previously (Circ Res, 1999; 85:906-911). The cells were lysed in lysis buffer (1% Triton X-100, 50 mM Tris-Cl, pH 7.4, 180 mM NaCl, 1 mM EDTA). The samples were measured for their protein concentration using the bicinchoninic acid (BCA) protein assay kit as described. Samples of concentrated conditioned medium and cell lysates were mixed with non-reducing electrophoresis loading buffer and subjected to electrophoresis under non-reducing conditions. The electrophoresis was carried out on a 10% SDS-PAGE co-polymerized with 2 mg/mL gelatin or casein (Sigma, St. Louis, Mo. USA). For zymographic analysis of pro-MMP-2 and activated MMP-2, the total 20 μg of culture medium were used for electrophoresis. Following electrophoresis, renaturation of the proteins was achieved by incubating the gels twice in 25 g/L Triton X-100 at room temperature for 10 min. Subsequently the gels were incubated in 50 mM Tris-HCl, pH 7.5 containing 0.2 M NaCl, 0.02% Brij35 and 10 mM CaCl2 at 37° C. for 18 hours. After the gels were stained with Coomassie Brilliant Blue R-250 and destained, zones of proteolytic activities became visible as transparent bands in the stained gel. In order to obtain higher sensitivity, the gels were further destained in a solution of 1% Triton X-100 (1 to 2 hours). This procedure increased the signal-to-noise ratio, allowing the visualization of faint gelatinase bands at 92 kDa, 125 kDa and greater than 200 kDa. Zymograms were read using a Molecular Dynamics (Sunnyvale, Calif., USA) computing laser densitometer with Image Quant software."}, "[4]": {"test_system": "MMP-1", "assay": "Western blot of MMP-1 in PMA- or IL-1β-pre-treated SW1353 cells (Example 6)", "type": "cell-based, human", "details": "48 h", "method": "The cells were then plated on 6-cm dishes at a density of 1×10^6 cells/dish for 24 hours prior to any treatment. At the beginning of the experiment, the cells were pre-treated with 100 ng/mL PMA or 10 ng/mL IL-1β for 24 hours. The cells were then treated 0.1 μM Dexamethasone with, various astragaloside compounds (0.1 μM) or extracts of Astragalus membranaceous (1 μg/mL) at indicated dosages for another 48 hours. For control sample, 0.1% DMSO was used as a negative control for these experiments. The conditioned culture mediums were then centrifuged, 2-fold concentrated and collected for assay of collagens or MMPs secreted into the culture medium.\nWestern blotting analysis was carried out on both cultured medium and cell lysates, as follows. The cells were washed and lysed in 0.2 mL of lysis buffer (1% NP-40, 50 mM Tris-HCl, pH 7.4, 180 mM NaCl, 1 mM EDTA, 1 mM PMSF, 1 mM NaF, 10 mM Na3VO4) for 30 min at 4° C. After centrifuging at 17500 g for 15 min, the supernatants of cell lysate were also collected. Protein concentration of the samples were measured using the bicinchoninic acid (BCA) protein assay kit according to the manufacturer's protocol (Pierce, Rockford, Ill., USA). Equal amount of protein samples of concentrated conditioned medium (100 μg) or cell lysate supernatants (50 μg) were mixed with an appropriate volume of 4×SDS sampling buffer and separated by 8% SDS-PAGE gel. The protein bands separated in the SDS-PAGE gel were blotted onto a polyvinylidene fluoride (PVDF) membrane. The blotted PVDF membrane was washed twice and blocked in freshly prepared Tris-buffered saline (TBS) containing 0.1% Tween-20 and 7% skim milk (TBST) for 2 hours at room temperature. The PVDF membrane was then incubated with either antibodies against collagen I and III or the housekeeping protein α-tubulin (Santa Cruz Biotechnology, Santa Cruz, Calif.) for 18 hours at 4° C. Horseradish peroxidase-conjugated anti-goat antibody was used as secondary antibody. Signals were visualized by an enhanced chemiluminescence kit (Clonetech, Palo Alto, Calif., USA) followed by exposure to X-ray films."}}}
{"smiles": "CC(C)(O)[C@@H]1CC[C@](C)([C@H]2[C@@H](O)C[C@@]3(C)[C@@H]4C[C@H](O[C@@H]5O[C@H](CO)[C@@H](O)[C@H](O)[C@H]5O)[C@H]5C(C)(C)[C@@H](O[C@@H]6OC[C@@H](O)[C@H](O)[C@H]6O)CC[C@@]56C[C@@]46CC[C@]23C)O1", "note": "[AS4, Astragaloside IV]", "values": [{"measurement": "Type II Collagen, Western blot, relative to Ctrl 1.00", "setting": "[1]", "result": 1.16}, {"measurement": "toxicity to SW1353 cells", "setting": "[2]; 24 or 48 hours", "result": "non-toxic"}, {"measurement": "cell proliferation compared with control group", "setting": "[2]; 24 hours", "result": "did not change significantly"}, {"measurement": "cell proliferation compared with control group", "setting": "[2]; 48 hours", "result": "did not change significantly"}, {"measurement": "MMP-1, Zymography, relative to Ctrl 1.00", "setting": "[3]", "result": 0.68}, {"measurement": "MMP-1, Western blot, relative to Ctrl 1.00", "setting": "[4]; IL-1β-pre-treated SW1353 cell extract, compounds 0.1 μM", "result": 0.22}, {"measurement": "MMP-1, Western blot, relative to Ctrl 1.00", "setting": "[4]; PMA-pre-treated SW1353 cell extract, 0.1 μM", "result": 0.74}]}
